1 compound from patent publication US20040073074A1, “Method of continuous production of polyalkylbiphenyls” (priority 2002, published 2004) can be followed below.

A short description of this data set: Confirmation of precipitation of 4,4′-diisopropylbiphenyl crystals on cooling. Type of data set: physicochemical. The settings on record: cooled to −10° C. On the procedure:
(Confirmation of Precipitation of 4,4′-diisopropylbiphenyl Crystals)
Solutions each containing 4,4′-diisopropylbiphenyl in ratios of 15% by mass and 30% by mass in diisopropylbiphenyl were respectively prepared in an amount of 50 g. Each solution was cooled to −10° C. […] Therefore, as mentioned above, in the case where the content of diisopropylbiphenyl contained in the solution recovery from the tower top of the distillation tower is 7.6% by mass and this amount is 27.6% by mass of the amount of diisopropylbiphenyl measured at the outlet of the reactor, with the result that the amount of 4,4′-diisopropylbiphenyl in diisopropylbiphenyl as a product is 14.1% by mass, there is no particular problem as to the low-temperature characteristics of the product. However, if the amount of diisopropylbiphenyl contained in the solution recovery from the tower top of the distillation tower becomes increase and the amount of 4,4′-diisopropylbiphenyl in diisopropylbiphenyl as a product becomes increase, the low-temperature characteristics will deteriorate.

With `CC(C)c1ccc(-c2ccc(C(C)C)cc2)cc1` [4,4′-diisopropylbiphenyl], the precipitation of crystals entry by setting is: (15% by mass in diisopropylbiphenyl) “no precipitation of crystals was observed”; (30% by mass in diisopropylbiphenyl) “a large amount of 4,4′-diisopropylbiphenyl precipitated”.
